Results: ChEMBL document CHEMBL1157539, “Thousands of chemical starting points for antimalarial lead identification” (Nature, 2010)

What follows are molecules tested on Plasmodium falciparum (assay: GSK_TCMDC: Inhibition of Plasmodium falciparum 3D7 in whole erythrocytes, using parasite LDH activity as an index of growth.). Conditions: Plasmodium falciparum, 3D7.
Type: functional, organism-based
For `Cc1ccc(Nc2nc(N/N=C/c3cccc(O)c3)nc(Nc3ccc([N+](=O)[O-])cc3)n2)cc1C`, the XC50 was 735 nM. `C[C@@H](CC1CCCCC1)OC(=O)N[C@H]1CCN(C#N)C1` was tested, and the XC50 was 870 nM. Molecule `CN=C(S)NN=C(C)c1ccccn1` has an XC50 of 272 nM. Molecule `Cc1cc(NC(=O)NCCN2CCC(NC(=O)c3ccc(F)cc3)CC2)c2ccccc2n1` has an XC50 of 331 nM. `CS(=O)(=O)c1ccc(-n2nc(C(F)(F)F)cc2-c2ccc(C=NOCC(=O)O)o2)cc1` was tested, and the XC50 was 976 nM. Molecule `O=C(c1ccc(-c2cccc(-c3nc4cc(C(F)(F)F)ccc4[nH]3)c2)cc1)N1CCCCC1CN1CCC(O)C1` (configuration not stated) has an XC50 of 652 nM. `Cn1cncc1C(=O)Nc1cccc(-c2csc(-c3nc4ccccc4[nH]3)c2)c1` showed an XC50 of 447 nM. Molecule `CC1CNC(c2ccc(NC(=O)Nc3ccc(C4=NC(C)CN4)cc3)cc2)=N1` (configuration not stated) has an XC50 of 379 nM. Molecule `COc1ccc(CCOc2c(C)nc(N)nc2N)cc1OC` has an XC50 of 69.6 nM. Work on `O=c1c(NCCCN(Cc2ccc(F)cc2)c2ccccn2)c(NCc2cccnc2)c1=O` yielded an XC50 of 61.7 nM. With `Cc1cc(Nc2ncc(C#N)c(Nc3ccccc3C(N)=O)n2)ccc1N1CCN(C)CC1` the XC50 was 8.63 nM. In the case of `CC(O)C1CCCCN1C(=O)c1cccc(-c2ccc(-c3nc4ccccc4[nH]3)s2)c1` (configuration not stated), the XC50 is reported as 798 nM. Molecule `Cc1ccc(F)cc1S(=O)(=O)NCC(C)c1ccc(NC(=O)Nc2cccc(F)c2)cc1` (configuration not stated) has an XC50 of 973 nM. For `CCOC(=O)C(C(=O)OCC)c1nc(C)ns1`, the XC50 was 471 nM. `CCCCOc1c(CCC)cc(Cc2cnc(N)nc2N)cc1CCC` was tested, and the XC50 was 629 nM. In the case of `CC(NC(=O)c1ccc(O)c(-c2ccc(Cl)c(Cl)c2)c1)C(=O)NCCN1CCCCC1` (configuration not stated), the XC50 is reported as 868 nM. Work on `N=C(N)NC(=O)Nc1cc(Cl)c(Cl)c(C(F)(F)F)c1` yielded an XC50 of 611 nM. `CO/C(=C\C=C\c1cc2cc(Cl)ccc2[nH]1)C(=O)NCCCN1CCN(c2cc(Cl)ccc2OC)CC1` showed an XC50 of 877 nM. `CC(NC(=O)c1ccc(O)c(-c2ccc(Cl)c(Cl)c2)c1)C(=O)NCCN1CCOCC1` (configuration not stated) was tested, and the XC50 was 959 nM. For `CC(C)(C(=O)Nc1ccc(C2CCC(NCC3CC3)CC2)c(Cl)c1)c1cccc(OC(F)F)c1` (configuration not stated), the XC50 was 968 nM. Work on `N#Cc1cccc(C(O)CN(Cc2ccccc2)Cc2ccccc2)c1` (configuration not stated) yielded an XC50 of 1270 nM. `Cc1cc(F)ccc1Nc1nc(N(C)c2ccccc2)c2cccc(O)c2n1` was tested, and the XC50 was 957 nM. `CSc1ccc2ccccc2c1CNCCCCCCNCc1c(SC)ccc2ccccc12` was tested, and the XC50 was 797 nM. With `CCN(CC)S(=O)(=O)c1cc(-c2ccc(=O)n(CC(=O)c3ccc(C)cc3)n2)ccc1C` the XC50 was 895 nM. Molecule `COc1cc2nc(NCC3CCN(c4nc(N)c5cc(OC)c(OC)cc5n4)CC3)nc(N)c2cc1OC` has an XC50 of 776 nM. `O=C(/C=C/c1ccc(Cl)c(Cl)c1)NCCCCCN1CCCN(C(=O)Nc2ccc(C(F)(F)F)cc2)CC1` gave an XC50 of 688 nM. In the case of `O=C(CSc1cccc[n+]1[O-])c1ccc(Cc2ncc(C(F)(F)F)cc2Cl)s1`, the XC50 is reported as 715 nM. With `Cc1ccc(NC(=O)c2cc([N+](=O)[O-])ccc2NCc2cccnc2)cc1Cl` the XC50 was 1120 nM. Molecule `CN(C(=O)c1snnc1-c1ccccc1)C1CCN(CCCCCNC(=O)/C=C/c2ccc(Cl)c(Cl)c2)CC1` has an XC50 of 186 nM. In the case of `CC(=O)Nc1ccc(-c2nc3ccc(-c4nc5ccc(NC(C)=O)cc5[nH]4)cc3[nH]2)cc1`, the XC50 is reported as 242 nM. For `CC(O)c1cccc(-c2ccc(Nc3ccnc4cc(-c5nccs5)ccc34)cc2)c1` (configuration not stated), the XC50 was 1010 nM. `N=C1N=C(N)NC2(CCCCC2)N1OCCCOc1cc(Cl)c(Cl)cc1Cl` showed an XC50 of 3.2 nM. `CN1CCN(c2cccc(-c3nnc(-c4cccc(OCC(=O)NCc5ccc(C(F)(F)F)cc5)c4)o3)c2)CC1` gave an XC50 of 759 nM. With `CC(=O)N(C)C1CCN(Cc2ccc(-c3cccc(-c4nc5cc(F)ccc5[nH]4)c3)cc2)C1` (configuration not stated) the XC50 was 596 nM. `O=C(Nc1ccc([N+](=O)[O-])cc1)Nc1cc(C(F)(F)F)ccc1F` was tested, and the XC50 was 1070 nM. For `CCC(=O)OC(CCN(CC)CC)(c1ccccc1)c1ccccc1`, the XC50 was 369 nM. `CN(C)c1ccc(CN2CCC(NC(=O)c3ccc(-c4ccc(N(C)C)cc4)s3)CC2)cc1` showed an XC50 of 1070 nM. Work on `COc1cccc(C(=O)NC(c2ccc(Cl)cc2Cl)c2cc(Cl)c3cccnc3c2O)c1` (configuration not stated) yielded an XC50 of 454 nM. Work on `COc1ccc(NC(=O)/C=C/c2ccc(-c3ccc(-c4noc(C)n4)cc3)cc2)cc1OCCN(C)C` yielded an XC50 of 1370 nM. With `CCCCCCC1(C)N=C(N)N=C(N)C1c1ccc(Cl)c(Cl)c1` (configuration not stated) the XC50 was 132 nM. Molecule `CCC1CCCCN1S(=O)(=O)c1ccc(OC)c(N2CCN(C(=O)C(Cl)(Cl)Cl)CC2)c1` (configuration not stated) has an XC50 of 1120 nM. `CCN1CCC(N(Cc2ccc(-c3ccc(C(F)(F)F)cc3)cc2)C(=O)CCCCn2c(CCc3cccc(F)c3F)nc(=O)c3ccccc32)CC1` was tested, and the XC50 was 989 nM. `O=C(Nc1cccc(CN2CCCN(Cc3cccc(Cl)c3)CC2)c1)c1ccc(Br)cc1` gave an XC50 of 944 nM. Work on `CC(=O)Nc1cccc(CNCc2ccc(-c3cnc(N4CCCC(C)(C)C4)nc3)cc2)c1` yielded an XC50 of 822 nM. `COc1ccc2nccc([C@@H](O)CN3CCC(NCc4cnc5c(c4)NC(=O)CS5)CC3)c2c1` showed an XC50 of 860 nM. For `CN1CCN=C1c1ccc(NC(=O)Nc2ccc(C3=NCCN3C)cc2)cc1`, the XC50 was 379 nM. Work on `N#Cc1cccc(NC(=O)Nc2ccc(-c3ccc(-c4nc5cc(C(F)(F)F)ccc5[nH]4)cc3)cc2)c1` yielded an XC50 of 145 nM. Molecule `Cc1noc(C)c1-c1cccc(CNCc2ccc(-c3ccc(-c4nc5cc(F)ccc5[nH]4)cc3)cc2)c1` has an XC50 of 212 nM. For `CN(c1ccc(NC(=O)Nc2cccc(Cl)c2)cc1)c1ccnc(N)n1`, the XC50 was 628 nM. Work on `CN1CCCN(Cc2ccc(-c3cccc(NC(=O)c4cccc(C#N)c4)c3)cc2)CC1` yielded an XC50 of 651 nM. Molecule `Cc1cccc2nc(-c3ccc(-c4cccc(NC(=O)CN5CCN(C)CC5)c4)s3)[nH]c12` has an XC50 of 826 nM. For `Cc1ccc2nc(-c3ccc(C(=O)NC4CCN(Cc5ccccc5)CC4)s3)[nH]c2c1`, the XC50 was 1010 nM. With `CCCCCOc1ccc(N2C(N)=NC(N)=NC2(C)C)cc1` the XC50 was 205 nM. In the case of `CCCCNCCOc1ccc(-c2nc(-c3ccccc3)c(-c3ccccc3)[nH]2)cc1`, the XC50 is reported as 679 nM. `Cc1ccc2[nH]c(C)cc(=NN=Cc3cccc(F)c3)c2c1` gave an XC50 of 631 nM. Molecule `COc1ccc2nccc([C@@H](O)CN3CCC(NC(=O)c4ccc5cc[nH]c5c4)CC3)c2c1` has an XC50 of 969 nM. For `Oc1ccc(-c2ccccc2)cc1CN1CCCCCC1`, the XC50 was 1170 nM. `CC(C)C1c2ccc(O)cc2CC2C(=O)N(C3CCCCC3)C(=O)N21` (configuration not stated) gave an XC50 of 884 nM. For `COc1cc(NC2=C(c3ccccc3)C(=O)c3ccccc32)ccn1`, the XC50 was 359 nM. In the case of `Cn1cncc1-c1ccc2c(-c3ccsc3)cnc(N)c2c1`, the XC50 is reported as 850 nM. `COc1ccc(-c2cc(C(=O)Nc3ccc(CCCN(C)Cc4ccc(OC)c(OC)c4)cc3)c3ccccc3n2)cc1` showed an XC50 of 698 nM. With `Cc1cc(OCC2CCCO2)c2cc(NC(=O)C(=O)Nc3ccc4nc(C)cc(OCC5CCCO5)c4c3)ccc2n1` (configuration not stated) the XC50 was 804 nM. Molecule `COc1csc2cc(Br)ccc12` has an XC50 of 861 nM. Molecule `O=C(/C=C/c1ccc(Cl)c(Cl)c1)NC1CCN(Cc2ccc(O)cc2)C1` (configuration not stated) has an XC50 of 952 nM. In the case of `Oc1cc(Nc2ccnc3cc(-c4cccc(CN5CCOCC5)c4)ccc23)c(F)cc1Cl`, the XC50 is reported as 207 nM. In the case of `CN1CC(c2ccccc2)c2cc(O)c(CN3CCCCC3)cc2CC1Cc1ccccc1` (configuration not stated), the XC50 is reported as 176 nM. `O=C1c2cc(I)ccc2SC1c1ccccc1` (configuration not stated) was tested, and the XC50 was 817 nM. For `COc1ccc2nccc([C@@H](O)CN3CCC(NCc4nc5c(cc4Cl)OCC(=O)N5)C(F)C3)c2c1` (some centres not stated), the XC50 was 1320 nM. Work on `NC1=NC2(CCCCC2)N(OCCCCCCN2C(=O)c3ccccc3C2=O)C(N)=N1` yielded an XC50 of 871 nM. For `O=C(CCc1c[nH]cn1)Nc1ccc(-c2ccc(-c3nc4cc(F)ccc4[nH]3)cc2)cc1`, the XC50 was 693 nM. For `c1ccc2c(C3CCN(CCCCOc4ccc5c(c4)CCN(CC4CC4)CC5)CC3)c[nH]c2c1`, the XC50 was 982 nM. With `CC[C@H]1CN2CC[C@@H]1C[C@@H]2[C@@H](O)c1cc(-c2ccc(F)cc2)nc2ccc(OC)cc12` the XC50 was 114 nM.
